Experimental data reported in patent publication US20050192340A1, “Simvastatin formulations and methods of making same” (priority 2003, published 2005).

Test: In vitro hydrolysis of simvastatin formulations under simulated gastric conditions (dissolution in 0.1N HCl, HPLC)
Type: physicochemical
Conditions: 37° C.
Protocol: Generally, the simvastatin formulations were prepared by heating menthol to about 60° C. while stirring and adding a surface active agent (either TWEEN® or Poloxamer) and sodium ducosate or sodium lauryl sulfate. The mixture was stirred until all the components dissolved to form a melt. Thereafter, the melt was cooled to about 50° C., simvastatin was added during stirring until dissolved, the mixture was cooled to room temperature, and dispensed into capsules. After about an hour the liquid in the capsule had gelled. Each capsule was filled with enough formulation to have a dose of 20 mg of simvastatin.
Each formulation was tested by dissolution in 50 ml of 0.1N HCl at 37° C. with stirring. […] It was determined that the retention times for the simvastatin hydroxyl acid was 3.6 minutes and simvastatin lactone was 5.7 minutes.

- % hydrolyzed Simvastatin (0.1N HCl, 60 min, weight % hydrolyzed simvastatin from the initial simvastatin amount): 0%
- % converted to hydroxyl acid (0.1N HCl, 60 min, weight % of the total dissolved simvastatin in the open hydroxy acid form): 0%
- % Dissolved 60 min 0.1 N HCl (50 ml 0.1N HCl, stirring, total dissolved simvastatin (closed lactone + open hydroxy acid form), 20 mg capsule): 0%
SMILES: CCC(C)(C)C(=O)O[C@H]1C[C@@H](C)C=C2C=C[C@H](C)[C@H](CCC3C[C@@H](O)CC(=O)O3)[C@H]21 (stereo partly drawn) [Simvastatin 100%]
